The values below come from PMC4321377, “Multiple signals modulate the activity of the complex sensor kinase TodS” (Microbial Biotechnology, 2014).

As usually defined, the EC50 is the concentration needed to bring the measured effect to its halfway point.

SMILES strings stand for the structures.

The target of the test is T1, TodS (Pseudomonas putida, UniProt E0X9C7).
T1 construct: full-length TodS, N-terminal His tag
Nature of the test: autophosphorylation assay with [γ-32P]ATP of purified TodS; ITC showed an exothermic chemical reaction. The class given is biochemical.

T1 sequence (E0X9C7 whole entry): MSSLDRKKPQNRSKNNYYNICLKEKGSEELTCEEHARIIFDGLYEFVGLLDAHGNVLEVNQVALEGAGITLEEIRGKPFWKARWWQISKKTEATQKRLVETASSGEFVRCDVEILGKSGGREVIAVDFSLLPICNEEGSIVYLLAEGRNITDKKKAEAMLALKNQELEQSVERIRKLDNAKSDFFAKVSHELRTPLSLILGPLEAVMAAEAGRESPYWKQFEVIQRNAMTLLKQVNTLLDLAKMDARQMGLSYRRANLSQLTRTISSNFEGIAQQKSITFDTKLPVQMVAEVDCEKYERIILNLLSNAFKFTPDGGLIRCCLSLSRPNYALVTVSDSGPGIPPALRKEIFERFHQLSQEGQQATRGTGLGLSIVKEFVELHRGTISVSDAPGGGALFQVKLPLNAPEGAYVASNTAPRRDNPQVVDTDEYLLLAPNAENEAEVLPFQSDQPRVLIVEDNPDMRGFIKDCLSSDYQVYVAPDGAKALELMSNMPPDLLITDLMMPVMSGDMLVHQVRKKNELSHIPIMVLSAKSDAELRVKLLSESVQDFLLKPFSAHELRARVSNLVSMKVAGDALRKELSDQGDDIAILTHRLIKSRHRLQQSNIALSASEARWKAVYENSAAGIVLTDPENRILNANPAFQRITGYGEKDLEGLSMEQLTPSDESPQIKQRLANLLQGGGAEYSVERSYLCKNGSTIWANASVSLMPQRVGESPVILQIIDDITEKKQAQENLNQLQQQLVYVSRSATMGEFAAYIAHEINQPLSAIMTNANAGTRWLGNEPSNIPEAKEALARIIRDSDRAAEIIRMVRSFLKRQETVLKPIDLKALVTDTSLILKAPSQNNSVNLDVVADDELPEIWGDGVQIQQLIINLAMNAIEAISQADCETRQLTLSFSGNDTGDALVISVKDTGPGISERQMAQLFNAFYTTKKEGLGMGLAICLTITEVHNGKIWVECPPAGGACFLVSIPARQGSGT

Turning to `CC1=CC(=O)c2ccccc2C1=O` [menadione, 2-methyl-l,4-naphthoquinone], the EC50 came to 170 ± 25 µM.
